We go through 3 compounds from patent US10865390B2, “Alcohol dehydrogenase mutant and application thereof in synthesis of diaryl chiral alcohols” (Jiangnan University, priority 2018, dated 2020).

Holding throughout (type): biochemical
Data set [1] concerns O=C(c1ccc(Cl)cc1)c1ccccn1. Briefly: Kinetic analysis of KpADH mutant M6 with CPMK. The note with it: other: M6, NADPH, pH 7.0, 30° C. The procedure:
In an embodiment of the present disclosure, the mutant includes the substitution of glycine for glutamic acid at position 214 of the amino acid sequence shown in SEQ ID No. 2, the substitution of cysteine for serine at position 237, the substitution of asparaginate for glutamine at position 136, the substitution of glycine for serine at position 196, and the substitution of valine for phenylalanine at position 161, which is named M6.
(§1) Adopting a total reaction system of 200 μL including: 1.0 mM NADPH, 1.0 mM substrate CPMK and sodium phosphate buffer (PBS, 100 mM, pH 7.0), fully and evenly mixing, maintaining at 30° C. for 2 min, adding an appropriate amount of enzyme solution, and detecting the change in light absorption at 340 nm.
(§2) The enzyme activity was calculated by the following formula: Enzyme activity (U)=EW×V×10^3/(6220×1);
(§3) in the formula, EW is the change in absorbance at 340 nm in 1 min; V is the volume of a reaction solution in mL; 6220 is the molar extinction coefficient of NADPH in L/(mol·cm); and 1 is the optical path distance in cm. One activity unit (U) corresponds to the amount of enzyme required to catalyze the oxidation of 1 μmol NADPH per minute under the above conditions.
(§4) A column used for purification was a nickel affinity column HisTrap FF crude, and purification was achieved through affinity chromatography using a histidine tag on recombinant protein. The nickel column was equilibrated with a solution A first, a crude enzyme solution was loaded, a penetrating peak was further eluted off using the solution A, and after equilibrium, a solution B (20 mM sodium phosphate, 500 mM NaCl, and 1000 mM imidazole, pH 7.4) was used for gradient elution to elute off the recombinant protein bound to the nickel column, so as to obtain the recombinant alcohol dehydrogenase mutant. The purified protein was subjected to activity measurement (CPMK as substrate, and NADPH as coenzyme) and SDS-PAGE analysis. […] The purified alcohol dehydrogenase protein was then replaced into a Tris-HCl (100 mM, pH 7.0) buffer using a Hi Trap Desalting column (GE Healthcare).
(§5) The activity of KpADH at different substrate concentrations and coenzyme concentrations was determined, and a double reciprocal curve was made based on the reciprocal of activity and substrate concentration to calculate kinetic parameters.

The subject of data set [2] is O=C(c1ccc(Cl)cc1)c1ccccn1. Briefly: Kinetic analysis of KpADH mutant M1 with CPMK. The note with it: other: M1, NADPH, pH 7.0, 30° C. The procedure: In an embodiment of the present disclosure, the mutant includes the substitution of glycine for glutamic acid at position 214 of the alcohol dehydrogenase with the amino acid sequence shown in SEQ ID No. 2, which is named M1.
as §1, §2, §3, §4, §5

The target in data set [3] is T1, alcohol dehydrogenase KpADH mutant M7 (E214V/T215S of SEQ ID No. 2) (Vanderwaltozyma polyspora, UniProt A7TM80, E214V/T215S).
T1 construct: mutant M7
In words: Kinetic analysis of KpADH mutant M7 with CPMK. The note with it: NADPH, pH 7.0, 30° C. Here is the method:
In an embodiment of the present disclosure, the mutant includes the substitution of valine for glutamic acid at position 214 of the amino acid sequence shown in SEQ ID No. 2, and the substitution of serine for threonine at position 215, which is named M7.
as §1, §2
(§6) in the formula, EW is the change in absorbance at 340 nm in 1 min; V is the volume of a reaction solution in mL; 6220 is the molar extinction coefficient of NADPH in L/(mol·cm); and 1 is the optical path distance in cm. One activity unit (U) corresponds to the amount of enzyme required to catalyze the oxidation of 1 μmol NADPH per minute under the above conditions. […]
as §5

Data set [4] deals with T2, alcohol dehydrogenase KpADH mutant M8 (Q136N/F161V of SEQ ID No. 1) (Vanderwaltozyma polyspora, UniProt A7TM80, F161V/Q136N).
T2 construct: control mutant M8
Briefly: Kinetic analysis of KpADH mutant M8 (control example) with CPMK. The note with it: NADPH, pH 7.0, 30° C. Here is the method: In an embodiment of the present disclosure, the mutant includes the substitution of asparaginate for glutamine at position 136 of alcohol dehydrogenase with an amino acid sequence shown in SEQ ID No. 1, and the substitution of valine for phenylalanine at position 161, which is named M8.
as §1, §2, §6, §5

Data set [5] concerns the target T3, alcohol dehydrogenase KpADH mutant M5 (E214G/S237C/Q136N/S196G of SEQ ID No. 2) (Vanderwaltozyma polyspora, UniProt A7TM80, E214G/Q136N/S196G/S237C).
T3 construct: mutant M5
Briefly: Kinetic analysis of KpADH mutant M5 with CPMK. The note with it: NADPH, pH 7.0, 30° C. The procedure: In an embodiment of the present disclosure, the mutant includes the substitution of glycine for glutamic acid at position 214 of the amino acid sequence shown in SEQ ID No. 2, the substitution of cysteine for serine at position 237, the substitution of asparaginate for glutamine at position 136, and the substitution of glycine for serine at position 196, which is named M5.
as §1, §2, §6, §5

The target of data set [6] is T4, alcohol dehydrogenase KpADH, wild type, SEQ ID No. 2 (Vanderwaltozyma polyspora, UniProt A7TM80).
T4 sequence (A7TM80 1-342): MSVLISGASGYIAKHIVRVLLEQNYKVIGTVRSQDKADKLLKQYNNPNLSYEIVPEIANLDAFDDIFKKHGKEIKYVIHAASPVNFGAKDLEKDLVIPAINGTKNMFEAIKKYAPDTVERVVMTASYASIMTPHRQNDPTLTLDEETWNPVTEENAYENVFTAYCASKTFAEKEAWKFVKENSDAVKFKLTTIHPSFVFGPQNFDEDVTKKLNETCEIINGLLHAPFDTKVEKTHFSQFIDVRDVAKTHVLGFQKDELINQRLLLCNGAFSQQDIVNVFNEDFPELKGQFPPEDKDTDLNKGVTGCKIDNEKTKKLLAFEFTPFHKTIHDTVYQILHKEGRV
Briefly: Kinetic analysis of KpADH wild type with CPMK. The note with it: NADPH, pH 7.0, 30° C. The procedure: as §1, §2, §3, §4, §5

For data set [7], the target named is T5, alcohol dehydrogenase KpADH mutant M9 (S196G/S237C of SEQ ID No. 1) (Vanderwaltozyma polyspora, UniProt A7TM80, S196G/S237C).
T5 construct: control mutant M9
In words: Kinetic analysis of KpADH mutant M9 (control example) with CPMK. The settings on record: NADPH, pH 7.0, 30° C. The procedure: In an embodiment of the present disclosure, the mutant includes the substitution of glycine for serine at position 196 of the alcohol dehydrogenase with the amino acid sequence shown in SEQ ID No. 1, and the substitution of cysteine for serine at position 237, which is named M9.
as §1, §2, §6, §5

With “alcohol dehydrogenase KpADH mutant M6 (E214G/S237C/Q136N/S196G/F161V of SEQ ID No. 2) (Vanderwaltozyma polyspora DSM 70294; E214G/F161V/Q136N/S196G/S237C)”, in data set [1], the Km was 1120 µM, the Vmax amounted to 25.2 µmol/min/mg, the kcat was found to be 20.1 s⁻¹ and the catalytic efficiency (kcat/Km) was 17900 M⁻¹ s⁻¹.
As to “alcohol dehydrogenase KpADH mutant M1 (E214G of SEQ ID No. 2) (Vanderwaltozyma polyspora DSM 70294; E214G)”, in data set [2], the Km turned out to be 520 µM, the Vmax came to 11.1 µmol/min/mg, the turnover number (kcat) was 7.32 s⁻¹ and the kcat/Km was found to be 14100 M⁻¹ s⁻¹.
As for `O=C(c1ccc(Cl)cc1)c1ccccn1` [CPMK, (4-chlorophenyl)-(pyridin-2-yl)-methanone], the Kcat in data set [3] came out at 14.2 s⁻¹; in data set [4], 14.8 s⁻¹; in data set [5], 17.0 s⁻¹; in data set [6], 11.8 s⁻¹; in data set [7] it was 17.6 s⁻¹. Besides, the Vmax in data set [3] is 21.3 µmol/min/mg; in data set [4], 22.3 µmol/min/mg; in data set [5], 21.3 µmol/min/mg; in data set [6], 17.9 µmol/min/mg; in data set [7], 26.5 µmol/min/mg. In addition, the Km in data set [6] was 410 µM.
